This data set in a line: Pulse tracer protocol (bolus L-[15N]-Phe), two compartmental model of Phe kinetics. Particulars: for EC Phe pool (extracellular Phe pool, Q1) / Flux of Phe between intra- and extracellular pool (F12, F21) / Frac. irr. loss (fractional irreversible loss of Phe from the intracellular pool, k02) / IC Phe pool (intracellular Phe pool, Q2) / IC Phe release (fractional intracellular release to extracellular pool, k12) / IC Phe uptake (fractional intracellular uptake from extracellular pool, k21) / Irr. loss (irreversible loss of Phe from the intracellular pool, F02): mean±SEM; for Q1 plasma pool size, mean value: SAAM II fit. The format is in vivo, pigs. How it is done: Female Yorkshire cross/domestic pigs (20-25 kg BW) were used in the experimental studies. The pigs were housed in steel pens (2 m×3 m) in a controlled housing facility with large animal cubicle at room temperature 22-24° C. with 12 hours light-dark cycle. The pigs were fed with standardized food 1 kg/day (Harlan Teklad Vegetarian Pig/Sow Grower)) and provided water ad libitum.
Animals received catheters and a jejunal stoma during a surgical procedure. During midline laparotomy, catheters were placed into the abdominal aorta for blood sampling, and in the caval vein for administering post-surgery medication and experiment related tracer infusions. A second arterial catheter was placed to monitor mean arterial blood pressure (MAP). A Swan ganz catheter (5 Fr, #132F5, Edwards life sciences, Irvine, Calif., USA) was placed via the right jugular vein to monitor mean pulmonary blood pressure (MPAP). Both preoperative and postoperative cares were standardized. During the recovery period (7-10 days) animals were accustomed to a small movable cage (0.9×0.5×0.3 m). The experiments were performed in this cage on awake animals. This study was approved by the animal experiment ethics committee of University of Arkansas Medical Sciences.
For the induction of sepsis, a live Pseudomonas aeruginosa (PM) human strain is used (IRS 12-4-4, Shriners burns institute, University of Texas Medical Branch, Galveston). Originally, this PM strain was isolated from a burnt patient at Brook Army Medical Center in San Antonio, Tex. Based on pilot virulence experiment, 10^9 Colony Forming Units per hour (CFU/hour) in a volume of 1 ml 0.9% NaCl solution was needed to obtain similar cardiovascular responses and hemodynamic variables with characteristics of severe hyperdynamic sepsis. Hemodynamics was continuously monitored to ensure that the hyperdynamic state was kept in the expected ranges for severe sepsis (body temp increase of 2-3° C., respiratory rate increased, MPAP increased but <35 mmHg, heart rate increased but <200 BPM).
The experiment started after a recovery period of 7-10 days. Four hours after the last food intake (half of the daily amount: 0.5 kg), animals were selected from the Sepsis group or the Healthy group in a randomized fashion. […] At T=0 h, sepsis was induced to the sepsis group by continuous infusion of Pseudomonas aeruginosa (PM, 10^9 CFU/ml/hour), while the Healthy group received an equal volume of 0.9% NaCl solution. Fluid resuscitation (30 ml/kg bw/hour) was also started at T=0 h and hemodynamics were monitored continuously. The results for the primed-continuous tracer protocol (PC) and the pulse tracer protocol were compared between 17 and 18 hours after the start of Pseudomonas aeruginosa. At t=18 h, the pigs were euthanized with 125 mg/k pentobarbital sodium and 16 mg phenytoin sodium (Euthanasol®).
Two stable isotopes of Phe: L-[ring-^13C6]-Phe and L-[^15N]-Phe (Cambridge Isotopes, Andover, Mass.) were used as tracers to study whole body rate of appearances of Phe (WbRa) with two tracer infusion protocols. Phe has been used to determine whole body protein breakdown. Previously studies were conducted based on the prime amount and tracer infusion rates. For the primed-continuous infusion protocol (PC), L-[ring-^13C6]-Phe was used. The prime (1.58 μmol/kg bw) and infusion (4.32 μmol/kg bw/hour) was given respectively in a volume of 2 ml/kg bw and 2 ml/kg bw/hour. It started 12 hours after the start of Pseudomonas aeruginosa, which is also 5 hours before the pulse protocol (PULSE). The L-[^15N]-Phe (26.3 μmol/kg bw in a volume 0.5 ml/kg bw) was used for the pulse protocol. All tracers are given via the central caval vein catheter.
Blood samples were taken and directly cooled on ice. The blood samples were processed within one hour. For amino acid concentration and enrichment analysis, heparinized blood was centrifuged at 4° C., 8000 G for 5 minutes. […]

In the case of `N[C@@H](Cc1ccccc1)C(=O)O` [Phe, phenylalanine], under “Healthy pigs”, the “k02 proportionality constant, mean value” is 0.033 min⁻¹; the “k12 proportionality constant, mean value” was determined as 0.051 min⁻¹; the “k21 proportionality constant, mean value” turned out to be 0.115 min⁻¹; the “Q1 plasma pool size, mean value” stood at 1121 µmol. In addition, under “Healthy pigs n=9”, the “EC Phe pool (extracellular Phe pool, Q1)” value was found to be 44 ± 2.2 μmol/kg BW; the “Flux of Phe between intra- and extracellular pool (F12, F21)” value was 5.02 ± 0.40 μmol/kg BW/min; the “Frac. irr. loss (fractional irreversible loss of Phe from the intracellular pool, k02)” value worked out at 3.33 ± 0.21 %/min; the “IC Phe pool (intracellular Phe pool, Q2)” value amounted to 105 ± 8.0 μmol/kg BW. Under “Healthy pigs n=9”, the “IC Phe release (fractional intracellular release to extracellular pool, k12)” value is 5.09 ± 0.69 %/min; the “IC Phe uptake (fractional intracellular uptake from extracellular pool, k21)” value was found to be 11.5 ± 0.71 %/min; the “Irr. loss (irreversible loss of Phe from the intracellular pool, F02)” value came out at 3.38 ± 0.10 μmol/kg BW/min. Besides, for the setting “Sepsis pigs”, the “k02 proportionality constant, mean value” was 0.028 min⁻¹; the “k12 proportionality constant, mean value” came to 0.044 min⁻¹; the “k21 proportionality constant, mean value” was found to be 0.105 min⁻¹; the “Q1 plasma pool size, mean value” stood at 1655 µmol. Also, where the note is “Sepsis pigs n=13”, the “EC Phe pool (extracellular Phe pool, Q1)” value is 63 ± 5.5 μmol/kg BW; the “Flux of Phe between intra- and extracellular pool (F12, F21)” value came out at 6.86 ± 0.42 μmol/kg BW/min; the “Frac. irr. loss (fractional irreversible loss of Phe from the intracellular pool, k02)” value was determined as 2.83 ± 0.15 %/min; the “IC Phe pool (intracellular Phe pool, Q2)” value is 157 ± 8.2 μmol/kg BW. Further, under “Sepsis pigs n=13”, the “IC Phe release (fractional intracellular release to extracellular pool, k12)” value came to 4.43 ± 0.25 %/min; the “IC Phe uptake (fractional intracellular uptake from extracellular pool, k21)” value was 10.6 ± 0.76 %/min; the “Irr. loss (irreversible loss of Phe from the intracellular pool, F02)” value was 4.33 ± 0.16 μmol/kg BW/min. The “intracellular pool relative to extracellular pool” value (pigs) is listed as 2.2 times.

For the origin of these results see US20160363580A1, “Methods of Metabolic Kinetic Phenotyping and Uses Thereof” (The Texas A&M University System, priority 2015, published 2016).
